In turn, `C[C@H](CO)Nc1nc(SCc2ccno2)nc2nc(N)sc12` [Example 9, (2R)-2-[[2-Amino-5-[(5-isoxazolylmethyl)thio]thiazolo[4,5-d]pyrimidin-7-yl]amino]-1-propanol] yielded a melting point of 183 to 185 °C.

`Cc1nc(CSc2nc(NC(CO)CO)c3sc(N)nc3n2)cs1` [Example 10, 2-[[2-Amino-5-[[(2-methyl-4-thiazolyl)methyl]thio]thiazolo[4,5-d]pyrimidin-7-yl]amino]-1,3-propanediol] came in with a melting point of 158 to 160 °C.

Regarding `Cc1nc(CSc2nc(NC(C)(C)CO)c3sc(N)nc3n2)cs1` [Example 11, 2-[[2-Amino-5-[[(2-methyl-4-thiazolyl)methyl]thio]thiazolo[4,5-d]pyrimidin-7-yl]amino]-2-methyl-1-propanol], the melting point was in the range of 250 to 252 °C.

Source of the values: patent US6958343B2, “Thiazolopyrimidines and their use as modulators of chemokine receptor activity” (AstraZeneca, AB, priority 2000, dated 2005).
